Data taken from article PMC12440886, “Inhibition of the oncogenic channel Kv10.1 by the antipsychotic drug penfluridol” (Frontiers in Pharmacology, 2025).

Key:
[1] = biological target: T1, Kv10.1 (Homo sapiens, UniProt O95259); assay: FLIPR membrane potential fluorescence assay in HEK-Kv10.[…] cells, single concentration ([…]); format: cell-based; conditions: read-out: % decrease in response amplitude at 100 μM
T1 construct: gene KCNH1
T1 sequence (O95259 1-989): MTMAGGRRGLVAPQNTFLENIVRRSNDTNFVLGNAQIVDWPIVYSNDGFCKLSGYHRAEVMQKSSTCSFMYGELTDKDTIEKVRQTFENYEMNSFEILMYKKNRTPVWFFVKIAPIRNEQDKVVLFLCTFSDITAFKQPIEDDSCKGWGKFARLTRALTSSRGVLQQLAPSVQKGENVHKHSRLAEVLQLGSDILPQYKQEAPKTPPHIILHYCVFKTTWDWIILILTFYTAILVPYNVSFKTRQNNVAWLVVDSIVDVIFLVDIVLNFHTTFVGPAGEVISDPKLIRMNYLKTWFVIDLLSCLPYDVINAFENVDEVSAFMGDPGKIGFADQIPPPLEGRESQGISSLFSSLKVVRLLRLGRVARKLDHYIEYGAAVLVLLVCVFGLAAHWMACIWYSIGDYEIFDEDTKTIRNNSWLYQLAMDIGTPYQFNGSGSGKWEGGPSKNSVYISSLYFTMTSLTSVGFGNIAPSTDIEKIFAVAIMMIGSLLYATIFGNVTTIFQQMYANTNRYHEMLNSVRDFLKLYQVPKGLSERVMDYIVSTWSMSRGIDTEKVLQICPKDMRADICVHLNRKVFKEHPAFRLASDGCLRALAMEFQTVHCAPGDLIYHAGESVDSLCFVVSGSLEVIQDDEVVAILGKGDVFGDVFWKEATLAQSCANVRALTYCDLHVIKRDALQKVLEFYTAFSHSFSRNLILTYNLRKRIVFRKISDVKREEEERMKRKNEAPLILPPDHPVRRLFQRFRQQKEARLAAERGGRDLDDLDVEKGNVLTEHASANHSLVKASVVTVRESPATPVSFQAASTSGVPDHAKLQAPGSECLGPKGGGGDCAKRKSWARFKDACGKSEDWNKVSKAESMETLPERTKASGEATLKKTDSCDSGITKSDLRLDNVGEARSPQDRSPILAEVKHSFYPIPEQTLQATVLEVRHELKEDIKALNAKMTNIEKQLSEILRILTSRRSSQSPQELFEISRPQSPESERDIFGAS

[2] = biological target: T1, Kv10.1; assay: whole-cell patch-clamp, HEK293 cells stably expressing human Kv10.[…]; format: cell-based

Row | SMILES | inhibition at 100 µM [1] [%] | IC50 [2] [nM]
1 | CN(C)C(=O)C(CCN1CCC(O)(c2ccc(Cl)cc2)CC1)(c1ccccc1)c1ccccc1 [LP, loperamide] | 46.1 | 
2 | OC1(c2ccc(Cl)c(C(F)(F)F)c2)CCN(CCCC(c2ccc(F)cc2)c2ccc(F)cc2)CC1 [PNFL, penfluridol] |  | 2700 ± 300
